The numbers were not newly measured in US12370233B2, “Depot systems comprising glatiramer acetate” (MAPI PHARMA LTD., priority 2016, dated 2025), which cites them from elsewhere.

For this series the following is noted: as reported by Rotstein et al., JAMA Neurol., 2015.

daclizumab [ZINBRYTA®]: the “NEDA at one year” value was 39%.
Consider natalizumab [TYSABRI®], for which the “NEDA at one year” value was 47%.
